pIC50: −log10 of the molar value. One block for each compound: values may come before it.
System: 876862-298-R-J1-PDC complex spheroids, viability % test/control
Experiment: Anticancer human tumor 876862-298-R-J1-PDC patient-derived endometrial carcinoma cell line growth inhibition [CLK]
Details: for pIC50: curve of first compound; for viability, T/C: stronger effect = lower value
Method in brief: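 Patient-derived tumor cells grown as complex spheroids with HUVEC endothelial cells and mesenchymal stem cells, treated with drug combinations. Concentrations descend in half-log steps from near clinical Cmax, or from 10 microM if Cmax unknown.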

[1] = second compound 0.0316 µM, first compound 0.0316 µM
[2] = second compound 0.0316 µM, first compound 0.1 µM
[3] = second compound 0.0316 µM, first compound 0.316 µM
[4] = second compound 0.0316 µM, first compound 1 µM
[5] = second compound 0.0316 µM, first compound 3.16 µM
[6] = second compound 0.0316 µM, first compound 10 µM
[7] = second compound 0.1 µM, first compound 0.0316 µM
[8] = second compound 0.1 µM, first compound 0.1 µM
[9] = second compound 0.1 µM, first compound 0.316 µM
[10] = second compound 0.1 µM, first compound 1 µM
[11] = second compound 0.1 µM, first compound 3.16 µM
[12] = second compound 0.1 µM, first compound 10 µM
[13] = second compound 0.316 µM, first compound 0.0316 µM
[14] = second compound 0.316 µM, first compound 0.1 µM
[15] = second compound 0.316 µM, first compound 0.316 µM
[16] = second compound 0.316 µM, first compound 1 µM
[17] = second compound 0.316 µM, first compound 3.16 µM
[18] = second compound 0.316 µM, first compound 10 µM
[19] = second compound 1 µM, first compound 0.0316 µM
[20] = second compound 1 µM, first compound 0.1 µM
[21] = second compound 1 µM, first compound 0.316 µM
[22] = second compound 1 µM, first compound 1 µM
[23] = second compound 1 µM, first compound 3.16 µM
[24] = second compound 1 µM, first compound 10 µM
[25] = second compound 3.16 µM, first compound 0.0316 µM
[26] = second compound 3.16 µM, first compound 0.1 µM
[27] = second compound 3.16 µM, first compound 0.316 µM
[28] = second compound 3.16 µM, first compound 1 µM
[29] = second compound 3.16 µM, first compound 3.16 µM
[30] = second compound 3.16 µM, first compound 10 µM
[31] = second compound 10 µM, first compound 0.0316 µM
[32] = second compound 10 µM, first compound 0.1 µM
[33] = second compound 10 µM, first compound 0.316 µM
[34] = second compound 10 µM, first compound 1 µM
[35] = second compound 10 µM, first compound 3.16 µM
[36] = second compound 10 µM, first compound 10 µM
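Further: spheroids exposed to drugs for 7 days before readout.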
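Wherever viability, T/C is given: 100% = DMSO vehicle control wells.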

- pIC50 (second compound 0.0316 µM): 8.82
- pIC50 (second compound 0.1 µM): > 9.02
- pIC50 (second compound 0.316 µM): > 9.02
- pIC50 (second compound 1 µM): > 9.02
- pIC50 (second compound 3.16 µM): > 9.02
- pIC50 (second compound 10 µM): > 9.02
Structure (SMILES): CC(C)CC(NC(=O)C(Cc1ccccc1)NC(=O)c1cnccn1)B(O)O (stereo unspecified) + CNC(=O)c1ccc(Nc2nc(OC3CCCC3)c3c(-c4ccc5nc(C)oc5c4)c[nH]c3n2)c(OC)c1
- viability, T/C (second compound 0.0316 µM, first compound 0.000949 µM): 78.1%
- viability, T/C (second compound 0.0316 µM, first compound 0.003 µM): 10.6%
- viability, T/C (second compound 0.0316 µM, first compound 0.00949 µM): 0.67%
- viability, T/C (second compound 0.0316 µM, first compound 0.03 µM): 0.44%
- viability, T/C (second compound 0.0316 µM, first compound 0.0949 µM): 1.97%
- viability, T/C (second compound 0.0316 µM, first compound 0.3 µM): 1.37%
- viability, T/C (second compound 0.1 µM, first compound 0.000949 µM): 47.3%
- viability, T/C (second compound 0.1 µM, first compound 0.003 µM): 7.8%
- viability, T/C (second compound 0.1 µM, first compound 0.00949 µM): 0.68%
- viability, T/C (second compound 0.1 µM, first compound 0.03 µM): 0.53%
- viability, T/C (second compound 0.1 µM, first compound 0.0949 µM): 1.95%
- viability, T/C (second compound 0.1 µM, first compound 0.3 µM): 0.42%
- viability, T/C (second compound 0.316 µM, first compound 0.000949 µM): 43.2%
- viability, T/C (second compound 0.316 µM, first compound 0.003 µM): 5.92%
- viability, T/C (second compound 0.316 µM, first compound 0.00949 µM): 1.95%
- viability, T/C (second compound 0.316 µM, first compound 0.03 µM): 0.56%
- viability, T/C (second compound 0.316 µM, first compound 0.0949 µM): 1.66%
- viability, T/C (second compound 0.316 µM, first compound 0.3 µM): 0.96%
- viability, T/C (second compound 1 µM, first compound 0.000949 µM): 38.4%
- viability, T/C (second compound 1 µM, first compound 0.003 µM): 4.5%
- viability, T/C (second compound 1 µM, first compound 0.00949 µM): 0.69%
- viability, T/C (second compound 1 µM, first compound 0.03 µM): 0.62%
- viability, T/C (second compound 1 µM, first compound 0.0949 µM): 1.84%
- viability, T/C (second compound 1 µM, first compound 0.3 µM): 0.22%
- viability, T/C (second compound 3.16 µM, first compound 0.000949 µM): 27.6%
- viability, T/C (second compound 3.16 µM, first compound 0.003 µM): 3.22%
- viability, T/C (second compound 3.16 µM, first compound 0.00949 µM): 0.41%
- viability, T/C (second compound 3.16 µM, first compound 0.03 µM): 0.44%
- viability, T/C (second compound 3.16 µM, first compound 0.0949 µM): 1.98%
- viability, T/C (second compound 3.16 µM, first compound 0.3 µM): 1.11%
- viability, T/C (second compound 10 µM, first compound 0.000949 µM): 23.3%
- viability, T/C (second compound 10 µM, first compound 0.003 µM): 2.73%
- viability, T/C (second compound 10 µM, first compound 0.00949 µM): 0.85%
- viability, T/C (second compound 10 µM, first compound 0.03 µM): 0.4%
- viability, T/C (second compound 10 µM, first compound 0.0949 µM): 0.82%
- viability, T/C (second compound 10 µM, first compound 0.3 µM): 1.17%

- pIC50 (second compound 0.0316 µM): 5.66
- pIC50 (second compound 0.1 µM): > 7.50
- pIC50 (second compound 0.316 µM): > 7.50
- pIC50 (second compound 1 µM): > 7.50
- pIC50 (second compound 3.16 µM): > 7.50
- pIC50 (second compound 10 µM): > 7.50
Structure (SMILES): CC1COCCN1c1cc(C2(S(C)(=N)=O)CC2)nc(-c2ccnc3[nH]ccc23)n1 (stereo unspecified) + CNC(=O)c1ccc(Nc2nc(OC3CCCC3)c3c(-c4ccc5nc(C)oc5c4)c[nH]c3n2)c(OC)c1
- viability, T/C [1]: 70.2%
- viability, T/C [2]: 84.7%
- viability, T/C [3]: 75.5%
- viability, T/C [4]: 69.8%
- viability, T/C [5]: 40.9%
- viability, T/C [6]: 22.5%
- viability, T/C [7]: 47.2%
- viability, T/C [8]: 50.9%
- viability, T/C [9]: 42.7%
- viability, T/C [10]: 44.6%
- viability, T/C [11]: 24.3%
- viability, T/C [12]: 15%
- viability, T/C [13]: 43.8%
- viability, T/C [14]: 41.5%
- viability, T/C [15]: 39.1%
- viability, T/C [16]: 30%
- viability, T/C [17]: 20.5%
- viability, T/C [18]: 11.4%
- viability, T/C [19]: 34.4%
- viability, T/C [20]: 37.4%
- viability, T/C [21]: 28.3%
- viability, T/C [22]: 22.6%
- viability, T/C [23]: 13%
- viability, T/C [24]: 6.42%
- viability, T/C [25]: 29%
- viability, T/C [26]: 21%
- viability, T/C [27]: 17.2%
- viability, T/C [28]: 11.7%
- viability, T/C [29]: 8.18%
- viability, T/C [30]: 3.92%
- viability, T/C [31]: 22.4%
- viability, T/C [32]: 19.5%
- viability, T/C [33]: 14.1%
- viability, T/C [34]: 12.6%
- viability, T/C [35]: 7.52%
- viability, T/C [36]: 3.99%

- pIC50 (second compound 0.0316 µM): < 5.00
- pIC50 (second compound 0.1 µM): 5.68
- pIC50 (second compound 0.316 µM): > 7.50
- pIC50 (second compound 1 µM): > 7.50
- pIC50 (second compound 3.16 µM): > 7.50
- pIC50 (second compound 10 µM): > 7.50
Structure (SMILES): O=C(c1cc(Cc2n[nH]c(=O)c3ccccc23)ccc1F)N1CCN(C(=O)C2CC2)CC1 + CNC(=O)c1ccc(Nc2nc(OC3CCCC3)c3c(-c4ccc5nc(C)oc5c4)c[nH]c3n2)c(OC)c1
- viability, T/C [1]: 70.5%
- viability, T/C [2]: 97%
- viability, T/C [3]: 84.5%
- viability, T/C [4]: 94.7%
- viability, T/C [5]: 96.8%
- viability, T/C [6]: 72.6%
- viability, T/C [7]: 47.4%
- viability, T/C [8]: 55%
- viability, T/C [9]: 50.6%
- viability, T/C [10]: 50.6%
- viability, T/C [11]: 51.5%
- viability, T/C [12]: 47.3%
- viability, T/C [13]: 49.1%
- viability, T/C [14]: 44.6%
- viability, T/C [15]: 40.6%
- viability, T/C [16]: 40.6%
- viability, T/C [17]: 39.4%
- viability, T/C [18]: 35.9%
- viability, T/C [19]: 39.1%
- viability, T/C [20]: 33.7%
- viability, T/C [21]: 29.6%
- viability, T/C [22]: 34.1%
- viability, T/C [23]: 31.3%
- viability, T/C [24]: 26.1%
- viability, T/C [25]: 25.5%
- viability, T/C [26]: 23.7%
- viability, T/C [27]: 20.4%
- viability, T/C [28]: 25.3%
- viability, T/C [29]: 23.3%
- viability, T/C [30]: 14.3%
- viability, T/C [31]: 22%
- viability, T/C [32]: 21.5%
- viability, T/C [33]: 20.8%
- viability, T/C [34]: 19.4%
- viability, T/C [35]: 23.5%
- viability, T/C [36]: 14.6%

From PubChem BioAssay AID2060607 (Molecular Pharmacology Branch, DTP, NCI, 2025)
